Read-outs that look alike come from different tables or passages of the source.
Assays:
[1] = system: T1, Dopamine D1; assay: Cerep binding; parameters: species or system human; details: 10 μM; [3H]SCH 23390; hum. recomb. (CHO)
T1 construct: host or cells: CHO

[2] = Plasma exposure in EEG study; format: in vivo; details: human, oral, 240 mg twice daily, mean ± SD
[3] = system: T2, Vasoactive intestinal peptide PAC1 (PACAP); assay: Cerep binding; parameters: species or system human; details: 10 μM; [125I]PACAP1-27; hum. recomb. (CHO)
T2 construct: host or cells: CHO

[4] = system: non-impaired rodents; assay: Cognitive performance in non-impaired rodents; format: in vivo; details: data not shown
[5] = system: T3, Serotonin 5-HT3; assay: Cerep binding; parameters: species or system human; details: 10 μM; [3H]BRL 43694; hum. recomb. (CHO)
T3 construct: purchased Eurofins Cerep

[6] = biological target: T4, human GABAA α1β3γ2 receptors (Homo sapiens, UniProt P14867+P18507); assay: [3H]-flumazenil competition binding, HEK293 membranes; details: 1 nM [3H]-flumazenil
T4 construct: expressed in transfected cells; host or cells: HEK293-EBNA, transient

[7] = system: T5, Muscarinic M2; assay: Cerep binding; parameters: species or system human; details: 10 μM; [3H]AF-DX 384; hum. recomb. (CHO)
T5 construct: host or cells: CHO

[8] = system: Kv channel; assay: Cerep binding; details: 10 μM; [125I]α−dendrotoxin; rat cerebral cortex
[9] = system: T6, Galanin 2; assay: Cerep binding; parameters: species or system human; details: 10 μM; [125I]galanin; hum. recomb. (CHO)
T6 construct: purchased Eurofins Cerep

[10] = Pharmacokinetics, single oral dosing, SAD study BP25129; format: in vivo, Human; details: for bioavailability / Tmax / AUC(0-t) / Cmax: human, plasma, tablet, n = 6 male; for Tmax: median, read-out: Tmax (range); for AUC(0-t) / Cmax: ± percent coefficient of variation
[11] = system: healthy male subjects; assay: Study WP25366 multiple-ascending dose, safety EEG and plasma exposure; format: in vivo, human
Procedure: 2) Study WP25366 Multiple-Ascending Dose (MAD) in Healthy Volunteers
Of the 32 healthy male subjects who were randomized to treatment, 24 subjects were […]
participants had several EEGs and several participants had sleep assessments with EEG that were also evaluated:
• Cohort 1: 80 mg (n dosed: 6)
• Cohort 2: 160 mg (n dosed: 6)
• Cohort 3: 370 mg (n dosed: 6)
• Cohort 4: 1000 mg (n dosed: 6)
EEG monitoring was implemented in this study starting at about 1 hour prior to dosing and then up to approximately 7 hours after dosing, on selected days during the dosing period. All sleep recordings were performed for approximately 8 h from 23.00 to 07.00. The objective of such monitoring was detection if any, of specific EEG patterns such as spikes, sharp waves, and spike-and-wave discharges that would be indicative of epileptiform changes or non - […]
The day and night EEG recordings were subject to expert safety review, with the objective of identifying any pro-convulsive signals. Following this safety review, EEG results were recorded either as normal, normal variant or abnormal variant. […]
of epileptogenic effects (e.g., generalized spike-wave discharges) in any subject in any dose group at any time points during the study. The review of the day and night EEG recordings […]
160 mg BID, 370 mg BID and 1000 mg BID, was safe and ha d no impact on brain electrical activity. Maximum plasma concentrations at Day 13 were 2120, 4110, 6040, and […]
3) Study WP29402 Drug-Drug Interaction (DDI) Itraconazole in Healthy Volunteers This was an open-label, three treatment, fixed sequence crossover study to investigate the […]
healthy male and female volunteers (age range 18-60 years; n: 12). As systemic basmisanil exposure was predicted to be higher than exposures achiev ed in previous clinical studies, regular EEG examinations were included and reviewed by a neurologist. Multiple oral doses […]
with the CYP3A inhibitor, itraconazole (200 m g OD).
Baseline EEG assessments were performed prior to the study (resting EEG eyes open/closed, intermittent photic stimulation, hyperventilation). On treatment days (1, 3, 5, 8) […]
hours and resting EEG eyes open/closed w ere performed. […]
administered with itraconazole.

[12] = system: Benzodiazepine (central); assay: Cerep binding; details: 10 μM; [3H]flunitrazepam; rat cerebral cortex
[13] = system: T7, Adenosine A1; assay: Cerep binding; parameters: species or system human; details: 10 μM; [3H]DPCPX; hum. recomb. (CHO)
T7 construct: host or cells: CHO

[14] = system: T8, Bradykinin B2; assay: Cerep binding; parameters: species or system human; details: 10 μM; [3H]bradykinin; hum. recomb. (CHO)
T8 construct: purchased Eurofins Cerep

[15] = system: male Lister Hooded rats; assay: Diazepam-induced spatial learning impairment in the Morris water maze; format: in vivo, rat
Procedure: The current study used a modified version of the standard acquisition protocol, in which pre-trained rats had to learn to locate a new platform position during six trials on the test day, as described previously. Subjects were semi-randomly divided into treatment groups based on their performance on the last training day. A computer tracking system (HVS Image Ltd, UK) was used to analyse each rat’s swim path on-line.
Latency, pathlength and swim speed (Supplementary Fig. S2) were analysed with a one-factor ANOVA. For the probe trial, to determine whether each treatment group had learned the spatial position of the platform, within-subjects ANOVA was used to compare percent time spent in the platform quadrant with the left, right and opposite quadrants. All significant cases were followed by a post hoc Newman–Keuls test. In addition, a comparison between vehicle treated and diazepam-treated rats on the percent time spent in the platform quadrant was analysed using an unpaired t-test.

[16] = system: T9, Dopamine D2S; assay: Cerep binding; parameters: species or system human; details: 10 μM; [3H]spiperone; hum. recomb. (HEK-293)
T9 construct: host or cells: HEK-293

[17] = system: T10, Neuropeptide Y1; assay: Cerep binding; parameters: species or system human; details: 10 μM; [125I]peptide YY; hum., SK-N-MC cells
T10 construct: purchased Eurofins Cerep

[18] = system: dogs; assay: GLP toxicology and safety pharmacology, daily oral administration; format: in vivo, dog
[19] = 3 and 10 mg/kg p.o. + diazepam 6 mg/kg i.p.

Cc1onc(-c2ccc(F)cc2)c1COc1ccc(C(=O)N2CCS(=O)(=O)CC2)cn1 [basmisanil]
% Inhibition [1]: 0%
concentration at 1 h ([2]; day 14, 1 h post morning dose): 3280 ± 888 ng/mL
concentration at 4 h ([2]; day 14, 4 h post morning dose): 4030 ± 842 ng/mL
% Inhibition [3]: -16%
enhancement of cognitive performance [4]: have not shown enhancement of cognitive performance
% Inhibition [5]: 8%
Ki [6]: 1030 ± 54 nM
% Inhibition [7]: 13%
% Inhibition [8]: -1%
% Inhibition [9]: -1%
bioavailability ([10]; 45 mg oral): ~75%
Tmax ([10]; 45 mg oral): 3.5 h
AUC(0-t) ([10]; 45 mg oral): 6040 ± 38.7 ng·h/mL
Cmax ([10]; 45 mg oral): 767 ± 15.4 ng/mL
bioavailability ([10]; 160 mg oral): ~75%
Tmax ([10]; 160 mg oral): 4 h
AUC(0-t) ([10]; 160 mg oral): 20300 ng·h/mL
Cmax ([10]; 160 mg oral): 1860 ± 14.3 ng/mL
bioavailability ([10]; 330 mg oral): ~75%
Tmax ([10]; 330 mg oral): 4 h
AUC(0-t) ([10]; 330 mg oral): 30500 ng·h/mL
Cmax ([10]; 330 mg oral): 2120 ± 24 ng/mL
maximum plasma concentration ([10]; single dose 160 mg): 1860 ng/mL
maximum plasma concentration ([10]; single dose 660 mg): 3710 ng/mL
maximum plasma concentration ([10]; single dose 1250 mg): 4890 ng/mL
Maximum plasma concentration at Day 13 ([11]; 80 mg BID): 2120 ng/mL
Maximum plasma concentration at Day 13 ([11]; 160 mg BID): 4110 ng/mL
Maximum plasma concentration at Day 13 ([11]; 370 mg BID): 6040 ng/mL
Maximum plasma concentration at Day 13 ([11]; 1000 mg BID): 8520 ng/mL
EEG assessments ([11]; 80, 160, 370 and 1000 mg BID): revealed no findings of clinical concern
% Inhibition [12]: 76%
% Inhibition [13]: 28%
% Inhibition [14]: 14%
probe trial, percent time spent in the previous platform quadrant ([15]; 10 mg/kg p.o. + diazepam 6 mg/kg i.p., 30 min before test): attenuated the diazepam-induced deficit
latency and pathlength across six learning trials [15, 19]: did not significantly reduce the diazepam-induced increase in latency and pathlength
swim speed [15, 19]: no effect on swim speed
% Inhibition [16]: 9%
% Inhibition [17]: 0%
exposures with lack of clinical signs and convulsion symptoms ([18]; GLP toxicology studies in dogs): up to 4590 ng/mL
convulsions and EEG alterations ([18]; daily oral, supra-therapeutic plasma exposures, up to 39 weeks): no convulsions and no EEG alterations
